Measurements taken from patent US5703089A, “Dihydrodibenzisoquinolinediones” (Knoll Aktiengesellschaft, priority 1996, dated 1997).
Where “and” joins values, the source holds several entries; their conditions need not be identical. Identical values can stand only once. Counter-ions that a name gives are not always drawn.

Legend:
[1] = system: HT-29 colon carcinoma cells; test: Inhibition of HT-29 tumor cell proliferation (MTT cytotoxicity, 72 h); assay type: cell-based; settings: HT-29, 72 h
Method: Cytotoxicity may be measured using standard methodology for adherent cell lines such as the microculture tetrazolium assay (MTT). Details of this assay have been published Cancer Research 48:589-601, 1988). Exponentially growing cultures of tumor cells such as the HT-29 colon carcinoma or LX-1 lung tumor are used to make microtiter plate cultures. Cells are seeded at 5000-20,000 cells per well in 96-well plates (in 150 μl of media), and grown overnight at 37° C. Test compounds are added, in dilutions varying from 10^-4 M to 10^-10 M. The cells are then incubated for 48-72 hours. To determine the number of viable cells in each well, the MTT dye is added (50 μl of 3 mg/ml solution of 3-(4,5-dimethylthiazol-2-yl)-2,5-diphenyltetrazolium bromide in saline). This mixture is incubated at 37° C. for 5 hours, and then 50 μl of 25% strength SDS (pH 2) is added to each well. After overnight incubation, the absorbance of each well at 550 nm is read using an ELISA reader. The values for the mean +/- SD of data from quadruplicate wells are calculated, using the formula % T/C (% cells treated/control). [formula]
The concentration of test compound which gives a T/C of 50% growth inhibition is designated as the IC50.
Inhibition of HT-29 tumor cell proliferation^a.
^a Dihydrodibenzoquinolinedione cytotoxicity studies were performed a
follows: HT29 cells were seeded (5000) into each well of 96 well dishes.
After plating overmight a titration of dihydrodibenzoquinolinedione was
added giving a final volume of 200 ul. Following incubation for 72 h 50 u
of MTT (3 mg/ml) in PBS was added to each well and incubated for 5 hours
at 37° C. The reaction was stopped by the addition of 50 ul of 25%
SDS, pH 2. After an overnight incubation at 37° C. the absorbance,
due to metabolized MTT, was read with a plate reader at 550 nm.
Cytotoxicity was calculate as the well absorbance expressed as a
percentage on nondrug treated control. All estimates were made in
^b 10^-2 M stock solution made in 10% acetic acid then diluted in
^c 10^-2 M stock solution made in 10% DMSO then diluted in media.
^d 10^-4 M stock solution made in 10% acetic acid/10% DMSO then
^e 10^-2 M stock suspention made in DMSO then diluted in media to […]

M5076 murine sarcoma = test: In vivo anti-tumor activity on M5076 murine sarcoma (survival); set-up: species or system C57BL/6 mice; settings: for % T/C: treated MST/control MST; for MST: treated on days 1.5 and 9
Method: Compounds according to the invention may be further tested in any of the various preclinical assays for in vivo activity which are indicative of clinical utility. Such assays may be conducted with human tumors implanted in nude mice as xenografts or mouse tumors implanted in conventional mice in the strain of origin (syngeneic), as is well known in this field. Test compounds are evaluated for their antitumor efficacy following administration to the tumor-bearing mice.
More specifically, human tumors which have been grown in athymic nude mice or mouse tumors grown in their synergeneic host are transplanted into new recipient animals, using either tumor fragments which are about 50 mg in size or 1×10^6 cells harvested from ascites fluid. The day of transplantation is designated as day 0 and the host mice are subsequently injected intravenously or intraperitoneally with the test compounds, in group of 5 to 10 mice per dose level. The compounds are administered either as a single dose or on an intermittent or frequent dosing schedule at doses from 0.1 to 100 mg/kg body weight. Tumor size of solid tumors are measured by vernier calipers in two directions and the volume estimated by the formula: […]
Life span studies following i.p. administration of tumor cells are evaluated on the base of median survival time (MST). The MST of drug treated (T) mice are compared to the MST of control (C) mice and expressed as T/C percent. Compounds producing a T/C percent of >100% indicates some reduction in tumor burden. Values of 125 to 150% may be considered to reflect moderate activity, values of 150 to 200% good to excellent activity, and >200% outstanding activity.
In vivo anti-tumor activity of a Dihydrodibenzoquinolinedione analog on M5076 murine sarcoma^a.
^a C57BL/6 mice (6 per group) were inoculated with 10^6 M5076
cells on day 0. Mice were treated on days 1.5 and 9 with the
dimethanesulfonate salt of example 1 at the dose levels shown. Mice died
as a consequence of tumor burden with median survival times (MST) as
shown. In both studies meaningful antitumor activity was produce as
indicated by a treated MST/Control MST percentage (% T/C) being

[2] = 10^-2 M stock solution made in 10% DMSO then diluted in media
[3] = Homo sapiens, 10^-2 M stock solution made in 10% DMSO then diluted in media
[4] = 10^-2 M stock solution made in 10% acetic acid then diluted in media
[5] = Homo sapiens, 10^-2 M stock solution made in 10% acetic acid then diluted in media
[6] = Homo sapiens, 10^-4 M stock solution made in 10% acetic acid/10% DMSO then diluted in media
[7] = 10^-2 M stock suspension made in DMSO then diluted in media to form a solution

SMILES: O=C1c2cccc3cc4ccccc4c(c23)C(=O)N1CCNCCCNCCN1C(=O)c2cccc3cc4ccccc4c(c23)C1=O [1 2 CH3 --SO3 H salt]
- IC50 [1, 2]: 20 nM
- IC50 [1, 3]: 10 nM
- % T/C (M5076 murine sarcoma; Experiment 1, 1.8 mg/kg): 154%
- MST (M5076 murine sarcoma; Experiment 1, 1.8 mg/kg, control MST 19.5): 30
- % T/C (M5076 murine sarcoma; Experiment 1, 2.6 mg/kg): 123%
- MST (M5076 murine sarcoma; Experiment 1, 2.6 mg/kg, control MST 19.5): 24
- % T/C (M5076 murine sarcoma; Experiment 1, 4 mg/kg): toxic
- MST (M5076 murine sarcoma; Experiment 1, 4 mg/kg, control MST 19.5): toxic
- % T/C (M5076 murine sarcoma; Experiment 2, 1.2 mg/kg): 128%
- MST (M5076 murine sarcoma; Experiment 2, 1.2 mg/kg, control MST 23.5): 30
- % T/C (M5076 murine sarcoma; Experiment 2, 1.8 mg/kg): 98%
- MST (M5076 murine sarcoma; Experiment 2, 1.8 mg/kg, control MST 23.5): 23
- % T/C (M5076 murine sarcoma; Experiment 2, 2.7 mg/kg): toxic
- MST (M5076 murine sarcoma; Experiment 2, 2.7 mg/kg, control MST 23.5): toxic
- treated MST/Control MST percentage (% T/C) (M5076 murine sarcoma; both studies, reproducibly, meaningful antitumor activity): greater than 125%

SMILES: O=C1c2cccc3cc4ccccc4c(c23)C(=O)N1CCNCCCNCCN1C(=O)c2cccc3cc4ccccc4c(c23)C1=O [Example 1, N,N'-Bis[2-(1,2-dihydro-1,3-dioxo-3H-dibenz[de,h]isoquinoline-2-yl)ethyl]-1,3-propanediamine]
- IC50 [1, 4]: 5 nM
- IC50 [1, 5]: 4 nM

SMILES: O=C1c2cccc3cc4ccccc4c(c23)C(=O)N1CCNCCNCCN1C(=O)c2cccc3cc4ccccc4c(c23)C1=O [Example 2, N,N'-Bis[2-(1,2-dihydro-1,3-dioxo-3H-dibenz[de,h]isoquinolin-2-yl)ethyl]-1,2-ethylenediamine]
- IC50 [1, 4]: 8 nM
- IC50 [1, 5]: 10 nM

SMILES: O=C1c2cccc3cc4ccccc4c(c23)C(=O)N1CCCNCCCCNCCCN1C(=O)c2cccc3cc4ccccc4c(c23)C1=O [Example 3, N,N'-Bis[3-(1,2-dihydro-1,3-dioxo-3H-dibenz[de,h]isoquinolin-2-yl)propyl]-1,4-butanediamine]
- IC50 [1, 5]: 200 nM

SMILES: O=C1c2cccc3cc4ccccc4c(c23)C(=O)N1CCCCNCCCN1C(=O)c2cccc3cc4ccccc4c(c23)C1=O [Example 4, [3-(1,2-dihydro-1,3-dioxo-3H-dibenz[de,h]isoquinolin-2-yl)propyl][4-(1,2-dihydro-1,3-dioxo-3,4-dibenz[de,h]isoquinolin-2-yl)butyl]amine]
- IC50 ([1]; 10^-4 M stock solution made in 10% acetic acid/10% DMSO then diluted in media): 50 nM
- IC50 [1, 6]: 90 nM

SMILES: O=C1c2cccc3cc4ccccc4c(c23)C(=O)N1CCCNCCCN1C(=O)c2cccc3cc4ccccc4c(c23)C1=O [Example 7, Bis[3-(1,2-dihydro-1,3-dioxo-3H-dibenz[de,h]isoquinolin-2-yl)propyl]amine]
- IC50 [1, 5]: 20 nM

SMILES: O=C1c2cccc3cc4ccccc4c(c23)C(=O)N1CCNCCN1C(=O)c2cccc3cc4ccccc4c(c23)C1=O [Example 9, Bis[2-(1,2-dihydro-1,3-dioxo-3H-dibenz[de,h]isoquinolin-2-yl)ethyl)amine]
- IC50 [1, 6]: 20 nM

SMILES: O=C1c2cccc3cc4ccccc4c(c23)C(=O)N1CCCNCCNCCCN1C(=O)c2cccc3cc4ccccc4c(c23)C1=O [Example 10, N,N'-Bis[3-(1,2-dihydro-1,3-dioxo-3H-dibenz[de,h]isoquinolin-2-yl)propyl]-1,2-ethylenediamine]
- IC50 [1, 4]: 90 nM
- IC50 [1, 5]: 100 nM

SMILES: O=C1c2cccc3cc4ccccc4c(c23)C(=O)N1CCCNCCCNCCCN1C(=O)c2cccc3cc4ccccc4c(c23)C1=O [Example 11, N,N'-Bis[3-(1,2-dihydro-1,3-dioxo-3H-dibenz[de,h]isoquinolin-2-yl)propyl]-1,3-propanediamine]
- IC50 [1, 4]: 80 nM
- IC50 [1, 5]: 100 nM

SMILES: O=C1c2cccc3cc4c([N+](=O)[O-])cccc4c(c23)C(=O)N1CCNCCCNCCN1C(=O)c2cccc3cc4c([N+](=O)[O-])cccc4c(c23)C1=O [Example 12, N,N'-Bis[2-(1,2-dihydro-8-nitro-1,3-dioxo-3H-dibenz[de,h]isoquinolin-2-yl)ethyl]-1,3-propanediamine]
- IC50 [1, 7]: 40 nM
- IC50 ([1]; Homo sapiens, 10^-2 M stock suspension made in DMSO then diluted in media to form a solution): 30 nM

SMILES: O=C1c2cccc3cc4c([N+](=O)[O-])cccc4c(c23)C(=O)N1CCNCCNCCN1C(=O)c2cccc3cc4c([N+](=O)[O-])cccc4c(c23)C1=O [Example 13, N,N'-Bis-[2-(1,2-dihydro-8-nitro-1,3-dioxo-3H-dibenz[de,h]isoquinolin-2-yl)ethyl]1,3-ethylenediamine]
- IC50 [1, 7]: 100 nM and 90 nM

SMILES: CN(CCN(C)CCN1C(=O)c2cccc3cc4ccccc4c(c23)C1=O)CCN1C(=O)c2cccc3cc4ccccc4c(c23)C1=O [Example 14, N,N'-Bis[2-(1,2-dihydro-1,3-dioxo-3H-dibenz[de,h]isoquinolin-2-yl)ethyl]-N,N'-dimethyl-1,2-ethylenediamine]
- IC50 [1, 2]: 80 nM
- IC50 [1, 3]: 70 nM

SMILES: O=C1c2cccc3cc4ccccc4c(c23)C(=O)N1CCNCCCCCNCCN1C(=O)c2cccc3cc4ccccc4c(c23)C1=O [Example 15, N,N'-Bis[2-(1,2-dihydro-1,3-dioxo-3H-dibenz[de,h]isoquinolin-2-yl)ethyl]-1,5-pentanediamine]
- IC50 [1, 3]: 8 nM
